# Measured values: ChEMBL document CHEMBL5523720, “Identification of novel GSPT1 degraders by virtual screening and bioassay” (Eur J Med Chem, 2024)
# Experiments:
# Type in all cases: functional, cell-based
# U-266 = test: Antiproliferative activity against human U-266 cells incubated for 48 hrs by MTS assay; settings: U-266, 48 h
# U-937 = test: Antiproliferative activity against human U-937 cells incubated for 48 hrs by MTS assay; settings: U-937, 48 h
# K562 = test: Antiproliferative activity against human K562 cells incubated for 48 hrs by MTS assay; settings: K562, 48 h
# OCI-AML2 = test: Antiproliferative activity against human OCI-AML2 cells incubated for 48 hrs by MTS assay; settings: OCI-AML2, 48 h
Structure (SMILES),IC50 (U-937),IC50 (K562),IC50 (OCI-AML2),IC50 (U-266)
Cc1nc2c(C)cccc2cc1C(=O)N/N=C/c1cccc([N+](=O)[O-])c1,9.9 µM,12.8 µM,2.68 µM,7.13 µM
Cc1nc2c(C)cccc2cc1C(=O)N/N=C/c1c(C)[nH]c2ccccc12,20 µM,11.1 µM,10.4 µM,17.4 µM
Cc1ccc2nc(C)c(C(=O)N/N=C/c3cccc(O)c3)cc2c1,> 40 µM,> 40 µM,> 40 µM,> 40 µM
Cc1nc2c(C)cccc2cc1C(=O)N/N=C/c1cccnc1,> 40 µM,> 40 µM,15.6 µM,26.6 µM
Cc1nc2ccccc2cc1C(=O)N/N=C/c1cccc(Cl)c1,> 40 µM,> 40 µM,> 40 µM,> 40 µM
COc1ccc2ccccc2c1/C=N/NC(=O)c1cc2cccc(C)c2nc1C,> 40 µM,> 40 µM,> 40 µM,> 40 µM

# Second part, led by results:
IC50 (U-937),IC50 (K562),IC50 (OCI-AML2),Structure (SMILES),IC50 (U-266)
> 40 µM,> 40 µM,> 40 µM,Cc1ccc2nc(C)c(C(=O)N/N=C/c3cccc(Cl)c3)cc2c1,> 40 µM
> 40 µM,> 40 µM,> 40 µM,Cc1nc2ccccc2cc1C(=O)N/N=C/c1cccc([N+](=O)[O-])c1,> 40 µM
4.31 µM,9.92 µM,2.49 µM,Cc1nc2c(C)cccc2cc1C(=O)N/N=C/c1cccc(Cl)c1,3.1 µM
6.53 µM,> 40 µM,8.98 µM,Cc1nc2ccccc2cc1C(=O)N/N=C/c1ccccc1O,6.75 µM
